Consider one molecule from paper PMC7762786, “The discovery of novel antitrypanosomal 4-phenyl-6-(pyridin-3-yl)pyrimidines” (European Journal of Medicinal Chemistry, 2021).

Each structure is given as a SMILES string.

Data set [1] concerns the target T1, HDAC1 (Homo sapiens, UniProt Q13547).
T1 construct: purchased BPS Bioscience (San Diego, USA)
Kind of data set: Histone deacetylase assay (HDAC-Glo I/II). In kind it is biochemical. The conditions noted are these: 10 μM, result in words. The protocol:
(§1) Cytotoxicity was also determined against 786-O and A549 cells.
(§2) Experiments for determining pre-clinical in vitro ADME-Tox activities were performed as described by Moraes et al. and also described in the following sections 4.3.2.1 to 4.3.2.4.
(§3) Inhibition of histone deacetylase (HDAC) enzymes was determined using the bioluminogenic HDAC-Glo™ I/II assay (Promega Corp.) in 384-well assay format. Human recombinant HDAC enzymes were purchased from BPS Bioscience (San Diego, USA) and the standard inhibitor trichostatin A (Sigma-Aldrich) was dissolved to a yield stock solution in 100% v/v DMSO (stored at −20 °C). Plate handling was performed using a Cell Explorer HTS platform equipped with an Echo 550® Liquid Handler and Multidrop liquid handling system with luminescence measurements taken using an EnVision® multilabel 2103 reader. Compounds were added to plates (100 nL/well; 1% v/v DMSO) and the HDAC-Glo™ I/II assay reagent was prepared by (i) rehydration of lyophilised HDAC-Glo™ I/II substrate (with an acetylated peptide concentration of 100 μM) in 10 mL HDAC-Glo™ I/II assay buffer and (ii) addition of 10 μL of developer reagent (containing trypsin). The microtiter plates were mixed briefly by orbital shaking (500–700 rpm) and luminescence was measured at steady-state signal:background which was achieved after 20 min. The raw data were normalised relative to the positive and negative controls yielding the % inhibition for each compound.

The target in data set [2] is T2, HDAC3 (Homo sapiens, UniProt O15379).
T2 construct: purchased BPS Bioscience (San Diego, USA)
As to the kind of experiment: Histone deacetylase assay (HDAC-Glo I/II). In kind it is biochemical. Particulars: 10 μM, result in words. The method, then: as §1, §2, §3

The target of data set [3] is T3, HDAC6 (Homo sapiens, UniProt Q9UBN7).
T3 construct: purchased BPS Bioscience (San Diego, USA)
T3 sequence (Q9UBN7 1-1215): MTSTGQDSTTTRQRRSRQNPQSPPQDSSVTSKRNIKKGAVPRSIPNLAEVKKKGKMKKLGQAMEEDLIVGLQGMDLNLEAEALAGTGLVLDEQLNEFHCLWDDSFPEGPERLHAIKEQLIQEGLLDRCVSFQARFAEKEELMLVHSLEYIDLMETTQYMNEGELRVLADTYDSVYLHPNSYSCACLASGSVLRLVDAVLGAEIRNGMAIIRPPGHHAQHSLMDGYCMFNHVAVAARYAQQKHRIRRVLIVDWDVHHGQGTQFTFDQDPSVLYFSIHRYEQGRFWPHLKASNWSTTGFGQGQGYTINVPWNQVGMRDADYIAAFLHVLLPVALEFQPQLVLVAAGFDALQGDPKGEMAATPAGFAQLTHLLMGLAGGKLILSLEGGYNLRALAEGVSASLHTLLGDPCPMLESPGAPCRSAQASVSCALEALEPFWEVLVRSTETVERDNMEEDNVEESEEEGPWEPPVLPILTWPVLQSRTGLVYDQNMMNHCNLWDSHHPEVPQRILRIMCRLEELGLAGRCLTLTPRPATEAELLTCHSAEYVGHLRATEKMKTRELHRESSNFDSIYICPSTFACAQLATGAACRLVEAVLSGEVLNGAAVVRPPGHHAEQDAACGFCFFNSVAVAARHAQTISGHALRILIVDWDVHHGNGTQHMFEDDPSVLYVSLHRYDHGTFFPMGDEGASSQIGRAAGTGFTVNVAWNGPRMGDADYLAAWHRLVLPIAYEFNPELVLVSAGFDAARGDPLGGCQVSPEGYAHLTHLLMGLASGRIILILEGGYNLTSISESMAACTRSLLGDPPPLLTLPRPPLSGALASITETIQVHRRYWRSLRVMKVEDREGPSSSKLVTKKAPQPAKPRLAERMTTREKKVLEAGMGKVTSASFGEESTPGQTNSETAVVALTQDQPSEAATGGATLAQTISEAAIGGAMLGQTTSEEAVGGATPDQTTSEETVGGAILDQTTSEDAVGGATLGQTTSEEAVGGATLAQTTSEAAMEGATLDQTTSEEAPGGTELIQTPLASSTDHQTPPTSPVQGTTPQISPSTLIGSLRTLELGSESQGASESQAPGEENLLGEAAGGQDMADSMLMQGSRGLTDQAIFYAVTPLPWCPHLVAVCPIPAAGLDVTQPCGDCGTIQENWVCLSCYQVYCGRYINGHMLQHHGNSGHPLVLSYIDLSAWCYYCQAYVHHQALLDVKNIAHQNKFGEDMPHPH
Kind of data set: Histone deacetylase assay (HDAC-Glo I/II). Particulars: 10 μM, result in words. It is filed as biochemical. The protocol:
as §1, §2, §3

Data set [4] addresses T4, hERG (Homo sapiens, UniProt Q12809).
T4 construct: purchased Invitrogen
Kind of data set: hERG cardiotoxicity assay (Predictor hERG Fluorescence Polarisation). Particulars: 10 μM, result in words. It is filed as binding. The protocol:
as §1, §2
The Invitrogen Predictor™ hERG Fluorescence Polarisation Assay was used in 384-well assay format. […] The plates were incubated for 2 h at 25 °C in a humidity-controlled incubator and the fluorescence polarisation was measured using an EnVision® multilabel 2103 reader. […] The raw data were normalised relative to the positive and negative controls yielding the % cardiotoxicity for each compound.

T2 sequence (O15379 whole entry): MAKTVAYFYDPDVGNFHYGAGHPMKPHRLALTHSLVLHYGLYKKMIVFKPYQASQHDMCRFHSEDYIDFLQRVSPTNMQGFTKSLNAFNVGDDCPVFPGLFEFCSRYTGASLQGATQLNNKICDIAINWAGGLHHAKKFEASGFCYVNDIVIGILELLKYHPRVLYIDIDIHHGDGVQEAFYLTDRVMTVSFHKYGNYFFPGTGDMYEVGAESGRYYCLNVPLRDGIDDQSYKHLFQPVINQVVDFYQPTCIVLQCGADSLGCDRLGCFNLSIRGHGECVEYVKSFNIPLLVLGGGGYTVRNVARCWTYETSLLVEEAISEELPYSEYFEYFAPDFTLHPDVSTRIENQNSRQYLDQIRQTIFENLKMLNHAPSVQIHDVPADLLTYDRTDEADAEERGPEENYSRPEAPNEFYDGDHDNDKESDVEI
T2 sequence (Q9Y618 395-489 partner limits assumed): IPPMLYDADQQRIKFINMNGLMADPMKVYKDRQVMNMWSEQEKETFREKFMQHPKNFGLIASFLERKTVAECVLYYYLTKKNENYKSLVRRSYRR
T1 sequence (Q13547 whole entry): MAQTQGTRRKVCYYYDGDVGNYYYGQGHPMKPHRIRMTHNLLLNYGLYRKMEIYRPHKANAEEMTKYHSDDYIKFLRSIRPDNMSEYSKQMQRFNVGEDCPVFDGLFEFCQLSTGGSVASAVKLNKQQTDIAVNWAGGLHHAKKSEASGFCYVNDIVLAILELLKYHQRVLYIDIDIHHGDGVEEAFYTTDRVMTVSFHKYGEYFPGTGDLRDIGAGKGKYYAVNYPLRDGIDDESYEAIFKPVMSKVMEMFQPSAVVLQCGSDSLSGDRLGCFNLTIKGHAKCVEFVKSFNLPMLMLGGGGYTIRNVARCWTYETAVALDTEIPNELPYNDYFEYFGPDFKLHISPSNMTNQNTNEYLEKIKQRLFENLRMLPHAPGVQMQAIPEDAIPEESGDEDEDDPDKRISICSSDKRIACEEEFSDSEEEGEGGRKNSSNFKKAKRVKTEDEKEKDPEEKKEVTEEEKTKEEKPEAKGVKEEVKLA
T4 sequence (Q12809 whole entry): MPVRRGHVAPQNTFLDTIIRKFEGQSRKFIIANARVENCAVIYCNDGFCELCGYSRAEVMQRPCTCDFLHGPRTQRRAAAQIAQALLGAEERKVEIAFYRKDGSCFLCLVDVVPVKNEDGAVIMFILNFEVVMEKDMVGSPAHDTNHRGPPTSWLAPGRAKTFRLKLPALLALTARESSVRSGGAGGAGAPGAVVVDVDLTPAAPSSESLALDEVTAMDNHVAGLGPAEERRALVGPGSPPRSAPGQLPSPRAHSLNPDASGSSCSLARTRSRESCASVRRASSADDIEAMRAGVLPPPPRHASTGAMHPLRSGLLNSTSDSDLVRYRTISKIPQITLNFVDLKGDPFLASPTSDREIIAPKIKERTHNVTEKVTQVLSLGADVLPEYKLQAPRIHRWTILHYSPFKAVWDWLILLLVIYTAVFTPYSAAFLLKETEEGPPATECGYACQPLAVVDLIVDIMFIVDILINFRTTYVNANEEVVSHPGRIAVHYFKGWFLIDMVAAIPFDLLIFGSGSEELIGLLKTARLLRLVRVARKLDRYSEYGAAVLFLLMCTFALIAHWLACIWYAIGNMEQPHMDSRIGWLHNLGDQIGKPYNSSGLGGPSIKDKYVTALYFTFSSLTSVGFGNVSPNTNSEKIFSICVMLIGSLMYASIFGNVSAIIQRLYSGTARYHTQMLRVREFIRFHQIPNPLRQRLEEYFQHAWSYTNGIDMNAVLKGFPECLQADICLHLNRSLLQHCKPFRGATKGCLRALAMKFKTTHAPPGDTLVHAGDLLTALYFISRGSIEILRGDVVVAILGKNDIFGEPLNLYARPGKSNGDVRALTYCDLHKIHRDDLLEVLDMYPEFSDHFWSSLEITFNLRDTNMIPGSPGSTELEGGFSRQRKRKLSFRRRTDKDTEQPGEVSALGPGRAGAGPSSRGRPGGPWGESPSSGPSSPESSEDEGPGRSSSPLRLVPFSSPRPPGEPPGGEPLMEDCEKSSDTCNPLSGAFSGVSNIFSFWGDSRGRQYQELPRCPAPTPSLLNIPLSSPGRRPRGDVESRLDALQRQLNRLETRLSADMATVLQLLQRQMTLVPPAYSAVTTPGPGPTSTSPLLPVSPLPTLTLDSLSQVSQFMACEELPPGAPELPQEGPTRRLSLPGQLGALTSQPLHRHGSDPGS

For the molecule `COc1ccccc1-c1cc(-c2cccnc2)nc(N)n1` [Compound 13, 4-(2-Methoxyphenyl)-6-(pyridin-3-yl)pyrimidin-2-amine], the melting point (as a rule, the temperature, or range, at which the solid turns liquid) lay in the range of 108 to 110 °C. The HDAC1 inhibition entry in data set [1] was “No inhibition”. Further, in data set [2], the HDAC3 inhibition result is reported as “No inhibition”. In addition, the HDAC6 inhibition entry in data set [3] is recorded as “No inhibition”. The hERG cardiotoxicity entry in data set [4] was “no notable”.
